Measured values published in patent publication US4798833A, “Guanine derivative” (priority 1983, dated 1989).

Experiments:
[1] = tested on: HSV-1 (strain C42); assay: Plaque reduction assay, inhibition of HSV-1 multiplication in Vero cells; type: cell-based, Herpes simplex type 1 virus; conditions: read-out: Inhibition (%)/Conc. (μM), HSV-1 in Vero cells; for inhibition at 1 µM: Human alphaherpesvirus 1, 1 μM
[2] = tested on: HSV-1 (strain C42); assay: Plaque reduction assay, inhibition of HSV-1 multiplication in HEL cells; type: cell-based, Herpes simplex type 1 virus; conditions: Human alphaherpesvirus 1, HEL (human embryonic lung) cells, read-out: HSV-1 in HEL cells ID50
[3] = tested on: VZV (several strains); assay: Inhibition of VZV multiplication in HL cells, late antigens by ELISA; type: cell-based, Varicella zoster virus
Procedure: I. Inhibition of virus multiplication in cell cultures
Virol. 2 357 (1968). The effect on VZV (several strains) multiplication in HL (human lung fibroblast) cells by VSA 671 was determined by measuring the formation of late antigens by the ELISA technique as described by B. Wahren et al., J. Virological Methods 6, 141-149 (1983).

[4] = biological target: HSV-1 thymidine kinase (Human herpesvirus 1, UniProt P0DTH5); assay: biochemical; conditions: for Ki: HSV-1 thymidine kinase, read-out: Inhibition constant Ki
Sequence of HSV-1 thymidine kinase (P0DTH5 whole entry): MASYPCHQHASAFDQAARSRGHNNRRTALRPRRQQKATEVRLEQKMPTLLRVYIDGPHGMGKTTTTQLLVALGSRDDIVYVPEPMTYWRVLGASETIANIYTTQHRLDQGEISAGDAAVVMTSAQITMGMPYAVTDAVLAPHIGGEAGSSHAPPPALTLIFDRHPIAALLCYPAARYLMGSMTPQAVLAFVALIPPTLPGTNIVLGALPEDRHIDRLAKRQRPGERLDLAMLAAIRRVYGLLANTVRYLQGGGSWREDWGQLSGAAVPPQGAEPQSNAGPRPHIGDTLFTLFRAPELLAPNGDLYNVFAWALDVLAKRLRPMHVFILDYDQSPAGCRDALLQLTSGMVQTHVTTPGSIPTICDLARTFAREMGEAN

[5] = tested on: HSV-1 (C42); assay: Systemic (i.p.) HSV-1 infection in mice; type: in vivo; conditions: treated animals
[6] = tested on: HSV-2 (strain 91075); assay: Systemic (i.p.) HSV-2 infection in mice; type: in vivo; conditions: treated animals
[7] = Cellular toxicity, reduction in growth of human embryonic cells; conditions: flow 1000 cells
[8] = tested on: cutaneous herpesvirus infection; assay: Cutaneous herpesvirus infection on guinea pigs, topical treatment; type: in vivo
Procedure: Thirty μl of solution or solvent was added topically 3 times per day for 4 days starting 24 h post inoculation.

[9] = 25 mg/kg i.p. twice daily 5 days, untreated 90, 21 days
[10] = 50 mg/kg i.p. twice daily 5 days, untreated 90, 21 days

Structure (SMILES)	inhibition at 1 µM [1]	IC50 [2]	IC50 ([3]; Human alphaherpesvirus 3, HL (human lung fibroblast) cells, several strains, late antigens by ELISA, read-out: VZV in HL cells ID50)	Effect against varicella zoster virus multiplication ([3]; in words)	Affinity for viral thymidine kinase (in words) [4]	Ki [4]	Cumulative mortality (%) (treated/untreated) [5, 9]	Cumulative mortality (%) (treated/untreated) [5, 10]	Cumulative mortality (%) (treated/untreated) [6, 9]	Cumulative mortality (%) (treated/untreated) [6, 10]	inhibition at 48 h, 200 µM [7]	inhibition at 10 µM ([1]; Human alphaherpesvirus 1, 10 μM)	Percent reduction in cumulative score as compared to placebo treatment ([8]; 2.5% in dimethylsulfoxide, 30 μl topically 3 times per day for 4 days starting 24 h post inoculation)	Therapeutic effect on cutaneous herpesvirus infections (in words) ([8]; topical)	Cumulative mortality (%) (treated/untreated) ([5]; 5 mg/kg i.p. twice daily 5 days, untreated 80, 21 days)	Cumulative mortality (%) (treated/untreated) ([5]; 10 mg/kg i.p. twice daily 5 days, untreated 80, 21 days)	Cumulative mortality (%) (treated/untreated) ([6]; 5 mg/kg i.p. twice daily 5 days, untreated 90, 21 days)	Cumulative mortality (%) (treated/untreated) ([6]; 10 mg/kg i.p. twice daily 5 days, untreated 90, 21 days)	Cumulative mortality (%) (treated/untreated) ([6]; 50 mg/kg i.p. twice daily 5 days, untreated 100, 21 days)	inhibition at 25 µM ([1]; Human alphaherpesvirus 1, 25 μM)
Nc1nc2c(ncn2CC(CO)CCO)c(=O)[nH]1 (stereo not drawn) [VSA 671, 9-[4-hydroxy-2-(hydroxymethyl)butyl]guanine]	> 90%	200 nM	1300 to 2500 nM	very good effect against varicella zoster virus multiplication	affinity close to that of the natural substrate, thymidine	600 nM	30%	30%	40%	30%	18%	–	–	–	–	–	–	–	–	–
Nc1nc2c(ncn2C/C=C\CO)c(=O)[nH]1 [VSA 151, cis-9-(4-hydroxy-2-butenyl)guanine]	–	600 nM	–	–	–	7000 nM	–	–	–	–	0%	> 90%	–	–	–	–	–	–	–	–
Nc1nc2c(ncn2CCC(CO)CO)c(=O)[nH]1 [VIS 873, 9-[4-hydroxy-3-(hydroxymethyl)butyl]guanine]	> 90%	400 nM	–	–	–	1500 nM	–	–	0%	–	7%	–	36%	had a therapeutic effect on cutaneous herpesvirus infections when applied topically	30%	0%	70%	20%	10%	–
Nc1nc2c(ncn2CC=C(CO)CO)c(=O)[nH]1 [VSA 668, 9-[4-hydroxy-3-(hydroxymethyl)-2-butenyl]guanine]	–	–	–	–	–	25000 nM	–	–	–	–	0%	–	–	–	–	–	–	–	–	> 90%
